Data published in publication PMC2614658 (Antiviral Research, 2008).
pIC50: −log10 of the molar value. Like-named read-outs stand apart in the source and are kept apart here.

Tests used:
influenza A/WSN/33 virus [1] = format: cell-based
[2] = system: influenza B/Yamagata/88 virus; format: cell-based
influenza A/WSN/33 virus [3] = test: microbe, parasite or virus in culture; conditions: A549, 24 h
influenza A/WSN/33 virus [4] = system: influenza A/WSN/33 virus
A549 cells = conditions: 24 h treatment, MTS assay
in vitro = conditions: human
influenza A/WSN/33 virus [5] = test: in vitro; conditions: human
[6] = system: Newcastle disease virus (NDV/B1); format: cell-based
[7] = system: vesicular stomatitis virus (VSV-GFP); format: cell-based
influenza A/WSN/33 virus [8] = conditions: ∼6 μM PMA
[9] = read-out: IC50 (compound concentration of 50% inhibition of viral replication)

**Q.** What does the source list for `C=C(C)[C@@]12O[C@@]3(c4ccccc4)O[C@@H]1[C@@H]1[C@@H]4O[C@]4(CO)[C@@H](O)[C@]4(O)C(=O)C(C)=C[C@H]4[C@@]1(O3)[C@H](C)[C@H]2OC(=O)/C=C/C=C/c1ccccc1` [mezerein]?
**A.** increase in viral titers (influenza A/WSN/33 virus [1]): 15 fold; increase in viral titer compared to untreated cells [2]: eightfold

**Q.** With `CC(=O)c1c(O)c(C)c(O)c(Cc2c(O)c3c(c(C(=O)/C=C/c4ccccc4)c2O)OC(C)(C)C=C3)c1O` [rottlerin] as the molecule, how does the pIC50 (influenza A/WSN/33 virus [3]; [9]) read?
**A.** 6.34

**Q.** What about the pIC50 (influenza A/WSN/33 virus [3]; read-out: IC50 (half maximal inhibitory concentration)) of the same molecule?
**A.** 6.33

**Q.** And the “reduction in viral titers compared to untreated control” value (“reduction in viral titers” below) (influenza A/WSN/33 virus [4])?
**A.** 93%

**Q.** And the “concentrations found to be non-toxic / not decreasing cell viability” value (A549 cells)?
**A.** up to 1.28 μM

**Q.** And the CC50 (in vitro)?
**A.** 18.2 µM

**Q.** And the “reduction in viral titers” value [2]?
**A.** 80%

**Q.** And the selectivity ratio (influenza A/WSN/33 virus [5])?
**A.** 39

**Q.** With `CC(=O)O[C@H]1C[C@H](O[C@H]2[C@@H](O)C[C@H](O[C@H]3[C@@H](O)C[C@H](O[C@H]4CC[C@@]5(C)[C@H](CC[C@@H]6[C@@H]5C[C@@H](O)[C@]5(C)[C@@H](C7=CC(=O)OC7)CC[C@]65O)C4)O[C@@H]3C)O[C@@H]2C)O[C@H](C)[C@H]1O[C@@H]1O[C@H](CO)[C@@H](O)[C@H](O)[C@H]1O` [lanatoside C] as the molecule, how does the “decrease in viral titers compared to untreated control” value (influenza A/WSN/33 virus [4]; […], 20 nM ouabain or 78 nM lanatoside C) read?
**A.** 95.9%

**Q.** What about the “effect on viral replication” value [6] of the same molecule?
**A.** significantly inhibit

**Q.** And the “effect on viral replication” value [7]?
**A.** significantly inhibit

**Q.** Which results are given for `C[C@@H]1O[C@@H](O[C@H]2C[C@@H](O)[C@]3(CO)[C@H]4[C@H](O)C[C@]5(C)[C@@H](C6=CC(=O)OC6)CC[C@]5(O)[C@@H]4CC[C@]3(O)C2)[C@H](O)[C@H](O)[C@H]1O` [ouabain]?
**A.** decrease in viral titers compared to untreated control (influenza A/WSN/33 virus [4]): 99.1%; effect on viral replication [6]: significantly inhibit; effect on viral replication [7]: significantly inhibit

**Q.** With `N#Cc1cc2c(OCC(O)CN3CCN(C(c4ccccc4)c4ccccc4)CC3)cccc2[nH]1` (stereo not shown) [SDZ-201106] as the molecule, how does the “SI (CC50/IC50), selective index” value (influenza A/WSN/33 virus [4]) read?
**A.** 7

**Q.** What about the “reduction in viral titers” value (influenza A/WSN/33 virus [4]) of the same molecule?
**A.** 85%

**Q.** And the pIC50 (influenza A/WSN/33 virus [4]; [9])?
**A.** 5.39

**Q.** What about the “concentrations found to be non-toxic / not decreasing cell viability” value (A549 cells) of the same molecule?
**A.** up to 12.5 μM

**Q.** And the “reduction in viral titers” value [2]?
**A.** 72%

**Q.** Which “increase in viral titer compared to untreated control” value (influenza A/WSN/33 virus [4]) does the source give for `CCCCCCCCCCCCCC(=O)O[C@@H]1[C@@H](C)[C@@]2(O)[C@@H](C=C(CO)C[C@]3(O)C(=O)C(C)=C[C@@H]23)[C@@H]2C(C)(C)[C@]12OC(C)=O` [PMA, phorbol 12-myristate 13-acetate] here?
**A.** 12 fold

**Q.** And the “toxicity at the concentration used in the screen” value (influenza A/WSN/33 virus [8])?
**A.** toxic
